Test results as given in publication PMC6270872, “Xanthenedione Derivatives, New Promising Antioxidant and Acetylcholinesterase Inhibitor Agents” (Molecules, 2014).
≈ marks a conversion by molar mass, not a printed value. Entries after “also recorded” stand apart in the source; their conditions may differ.

Columns and labels:
[1] = DPPH radical scavenging assay; details: for Radical Scavenging Activity AE (antiradical efficiency): AE = 1/(EC50 × TEC50), TEC50 = time to reach the steady state for the EC50; for EC50: concentration of the compound to reduce the DPPH radical concentration to 50%, ± SD
Protocol: Antioxidant activity was assayed by the DPPH (1,1-diphenyl-2-picrylhydrazyl) radical scavenging assay using the Blois method modified. […] In each assay, a control was prepared, in which the compound or standard (quercetin and BHT) was substituted by the same amount of solvent. The mixture was shaken vigorously and left to stand for 30 min in the dark, and the absorbance was then measured at 517 nm. The capability to scavenge the DPPH radical was calculated using the following equation: DPPH scavenging activity (%) = [(Ac − As)/Ac] × 100(1) where, Ac is the absorbance of the control and As is the absorbance of the compound or standard. All assays were carried out in triplicate and results expressed as EC50, i.e., as the concentration yielding 50% scavenging of DPPH, calculated by interpolation from the % vs. concentration curve.

[2] = Reducing power, potassium ferricyanide reduction method; details: four concentrations, 20–80 μg/mL; absorbance at 700 nm; references BHT and quercetin (Figure 3)
Protocol: The reductive potential of the compounds and standard was determined according to a previously described method. An aliquot of the sample or standard (1.0 mL) at various concentrations (20–80 μg/mL in DMSO) was mixed with phosphate buffer (0.2 mol L^−^1, pH 6.6, 1.25 mL) and 1% potassium ferricyanide (1.25 mL). The mixture was incubated at 50 °C for 20 min. After cooling, 1.25 mL of 10% trichloroacetic acid was added and the mixture incubated at 50 °C for 10 min. 1.25 mL of this solution was mixed with distilled water (1.25 mL) and 0.1% iron(III) chloride (0.25 mL) and the absorbance measured at 700 nm using an appropriate blank. Assays were carried out in triplicate.

[3] = molecular target: T1, AChE from Electrophorus electricus (Electrophorus electricus, UniProt O42275); experiment: biochemical; assay type: biochemical; details: for IC50: ± SD, n = 4, read-out: Anti-AChE IC50
T1 construct: purchased Sigma-Aldrich Chemical Company, St. Louis, MO, USA
T1 sequence (O42275 24-633): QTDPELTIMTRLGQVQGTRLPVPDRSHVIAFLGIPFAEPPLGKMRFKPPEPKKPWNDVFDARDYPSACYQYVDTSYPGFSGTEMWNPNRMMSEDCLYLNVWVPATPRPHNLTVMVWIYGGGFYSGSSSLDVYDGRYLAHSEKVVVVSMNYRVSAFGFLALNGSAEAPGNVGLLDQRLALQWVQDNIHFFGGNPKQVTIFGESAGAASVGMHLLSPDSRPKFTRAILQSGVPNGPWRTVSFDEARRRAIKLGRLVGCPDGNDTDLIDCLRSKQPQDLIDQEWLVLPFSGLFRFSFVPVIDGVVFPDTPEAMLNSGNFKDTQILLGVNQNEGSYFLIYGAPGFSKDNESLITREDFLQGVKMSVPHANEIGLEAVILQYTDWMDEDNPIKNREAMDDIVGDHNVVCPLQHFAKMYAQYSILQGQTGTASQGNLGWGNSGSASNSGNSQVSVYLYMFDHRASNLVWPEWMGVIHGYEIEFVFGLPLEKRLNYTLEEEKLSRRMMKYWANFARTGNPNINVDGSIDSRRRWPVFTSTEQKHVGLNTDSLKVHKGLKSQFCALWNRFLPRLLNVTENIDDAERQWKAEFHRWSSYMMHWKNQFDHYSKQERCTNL
Protocol: The AChE activity was evaluated using the method described by Ellman et al. and Ingkaninan et al., modified. Briefly, 10 μL of 0.25 U/mL AChE from Electrophorus electricus (Sigma-Aldrich® Chemical Company, St. Louis, MO, USA) was added to the wells containing sample in different concentrations, and allowed to incubate for 5 min. Reaction was started by the addition 5 μL of 3 mM 5,5'-dithiobis[2-nitrobenzoic acid] (DTNB,) and 5 μL of 75 mM acetylthiocholine iodide (ATCI; Fluka Chemicals, Buchs, Switzerland). The absorbance was then read at 415 nm every 2.5 min for 7.5 min in a Bio Rad Model 680 Microplate Reader (Bio-Rad Laboratories, Inc., Hercules, CA, USA). Percentage of enzymatic inhibition was calculated relatively to the control without inhibitor. Every experiment was done in quadruplicate. […] PROGRAM Version 1.4 was used.

[4] = Maximum soluble concentration in the DPPH assay; assay type: physicochemical; details: ethanol (ethanolic solution of the DPPH assay), ethanolic solutions, read-out: maximum concentration at which the compound is soluble
Protocol: Antioxidant activity was assayed by the DPPH (1,1-diphenyl-2-picrylhydrazyl) radical scavenging assay using the Blois method modified [24]. Briefly, different volumes of the ethanolic solutions of each compound or standard (1–100 µM) were added fixed volume of DPPH ethanolic solution (400 µL of the solution 0.6 mM) and solvent (ethanol) to obtain, in each case, a fixed total volume. In each assay, a control was prepared, in which the compound or standard (quercetin and BHT) was substituted by the same amount of solvent. The mixture was shaken vigorously and left to stand for 30 min in the dark, and the absorbance was then measured at 517 nm. The capability to scavenge the DPPH radical was calculated using the following equation: DPPH scavenging activity (%) = [(Ac − As)/Ac] × 100(1) where, Ac is the absorbance of the control and As is the absorbance of the compound or standard. All assays were carried out in triplicate and results expressed as EC50, i.e., as the concentration yielding 50% scavenging of DPPH, calculated by interpolation from the % vs. concentration curve.

Compound | Radical Scavenging Activity AE (antiradical efficiency) [1] | EC50 [1] | Reducing power (reduction of ferric ion) [2] | Type of AChE inhibition [3] | IC50 [3] | DPPH quenched ([1]; at 552 µM, the maximum soluble concentration) | solubility [4]
O=C1CC(c2ccc(O)c(O)c2)C(=Cc2ccc(O)c(O)c2)c2oc3cccc(O)c3c(=O)c21 (centres unmarked) [Compound 5e, (E)-8-Hydroxy-4-(3,4-dihydroxybenzylidene)-3-(3,4-dihydroxyphenyl)-3,4-dihydro-1H-xanthene-1,9-(2H)-dione] | 0.026 | 3.79 ± 0.06 µM | higher reduction capacity than BHT and similar to quercetin; also recorded: more efficient than BHT and similar to quercetin | almost pure competitive type inhibition | 31 ± 0.09 µM | – | –
Cc1ccc(/C=C2/c3oc4cccc(O)c4c(=O)c3C(=O)CC2c2ccc(C)cc2)cc1 (centres unmarked) [Compound 5b, (E)-8-Hydroxy-4-(4-methylbenzylidene)-3-(4-methylphenyl)-3,4-dihydro-1H-xanthene-1,9(2H)-dione] | – | – | – | – | > 355 µM | – | –
O=C1CC(c2ccc(O)cc2)C(=Cc2ccc(O)cc2)c2oc3cccc(O)c3c(=O)c21 (centres unmarked) [Compound 5c] | – | > 552 µM | did not significantly reduce ferric ion | mixed type inhibition | 41.1 ± 6.1 µM | 36% | 552 µM (≈ 235 µg/mL)
O=C1CC(c2ccccc2Cl)/C(=C\c2ccccc2Cl)c2oc3cccc(O)c3c(=O)c21 (centres unmarked) [Compound 5f, (E)-4-(2-Chlorobenzylidene)-3-(2-chlorophenyl)-8-hydroxy-3,4-dihydro-1H-xanthene-1,9(2H)-dione] | – | – | – | – | > 325 µM | – | –
O=c1c(O)c(-c2ccc(O)c(O)c2)oc2cc(O)cc(O)c12 [Quercetin, reference compound] | 0.0042 | 5.97 ± 0.11 µM | – | – | – | – | –
O=C1CC(c2ccc(Cl)cc2)C(=Cc2ccc(Cl)cc2)c2oc3cccc(O)c3c(=O)c21 (centres unmarked) [Compound 5d] | – | – | – | – | > 325 µM | – | –
O=C1CC(c2ccccc2)C(=Cc2ccccc2)c2oc3cccc(O)c3c(=O)c21 (centres unmarked) [Compound 5a, (E)-3-Aryl-4-benzylidene-8-hydroxy-3,4-dihydro-1H-xanthene-1,9(2H)-dione] | – | – | did not significantly reduce ferric ion | – | > 381 µM | – | –
Cc1c(C)c2c(c(C)c1O)CCC(C)(C(=O)O)O2 (centres unmarked) [Trolox, reference compound] | 0.011 | 18.7 ± 0.65 µM | – | – | – | – | –
